Here are results for one compound from patent publication US20240009170A1, “INHIBITION OF GLYCOGEN SYNTHASE KINASE-3 (GSK-3)” (Brown University, priority 2020, published 2024).

Series [1] has as its system NK-92 cells. As to the kind of experiment: Cytokine profile of immune cell culture supernatant, NK-92. Format: cell-based, Human. To be noted: 1 μM, 48 hours. Here is the method: (§1) Collection of cell culture supernatants used in cytokine measurements. Cells were plated at 3.5×10^4 cells in a 48-well plate (Thermo Fisher Scientific, Waltham, MA, USA) in complete medium and incubated at 37° C. with 5% CO2. At twenty-four hours after plating, almost all the tumor cells were adherent to the bottom of the flask and the complete medium was replaced with drug-containing medium. Subsequently, the culture supernatants were collected after forty-eight hours of incubation and were frozen at −80° C. until the measurement of cytokines was performed. The day of analysis, samples were thawed and centrifuged to remove cellular debris.
Human cytokine profiling. Human cell line culture supernatants were analyzed using an R&D systems Human Premixed Multi-Analyte Kit (R&D Systems, Inc., Minneapolis, MN, USA) and a Luminex 200 Instrument (LX200-XPON-RUO, Luminex Corporation, Austin, TX, USA) according to the manufacturer's instructions. […]
9-ING-41 increases secreted cytotoxic proteins IFN-v, Granzyme B, and TRAIL in immune cells. […] Here, the inventors determined how 9-ING-41 treatment impacts the immune cell cytokinome. […]

Series [2] concerns advanced malignancies. The conditions noted are these: cited from earlier work.
For series [3], the system named is human colorectal cell lines (HCT-116, HT-29, KM12C). As to the kind of experiment: Cytokine, chemokine and growth factor profile of tumor cell culture supernatant (Luminex 200). Format: cell-based. As for the experimental part: as §1
Human cytokine profiling. Human cell line culture supernatants were analyzed using an R&D systems Human Premixed Multi-Analyte Kit (R&D Systems, Inc., Minneapolis, MN, USA) and a Luminex 200 Instrument (LX200-XPON-RUO, Luminex Corporation, Austin, TX, USA) according to the manufacturer's instructions. Sample levels of TNF-α, 4-1BB/TNFRSF9/CD137, IL-8/CXCL8, Ferritin, IFN-β, IL-10, CCL2/JE/MCP-1, VEGF, CXCL13/BLC/BCA-1, IFN-γ, CCL20/MIP-3 α, CCL3/MIP-1 α, CCL22/MDC, CCL4/MIP-1 β, Fas Ligand/TNFSF6, IL-17/IL-17A, IL-2, BAFF/BLyS/TNFSF13B, GM-CSF, CXCLS/ENA-78, TRANCE/TNFSF11/RANK L, CXCL9/MIG, G-CSF, IFN-γ R1/CD119, VEGFR3/Flt-4, C-Reactive Protein/CRP, CXCL11/I-TAC, IL-21, CXCL14/BRAK, IL-6, Fas/TNFRSF6/CD95, TRAIL R3/TNFRSF10C, IL-4, CCL5/RANTES, PD-L1/B7-H1, CCL7/MCP-3/MARC, Chitinase 3-like 1, CXCL10/IP-10/CRG-2, IL-1β/IL-1F2, IL-7, Prolactin, CCL8/MCP-2, TRAIL R2/TNFRSF10B, M-CSF, IL-15, Granzyme B, IFN-α, TREM-1, IL-12/IL-23 p40, TRAIL/TNFSF10, CCL11/Eotaxin, and IL-18/IL-1F4. Sample values are reported in picograms per milliliter (pg/mL).
Cells were treated with 9-ING-41, a selective and potent small molecule inhibitor of GSK-3β, at doses up to 100 μM for seventy-two hours to determine IC10, IC30, IC50, and IC70. Cytokine, chemokine, and growth factor levels were analyzed in the tumor cell culture supernatants after treatment at IC10, IC30, IC50, and IC70 for forty-eight hours using a Luminex 200 multiplexing instrument.

For series [4] the following is noted: in vivo; cited from earlier work.
The subject of series [5] is prostate cancer cell lines. To be noted: cited from earlier work.
For series [6], the system named is TALL-104 T cells. Description: Western blot analysis, TALL-104. Format: cell-based, Human. As for the experimental part:
Western blot analysis. Cells were plated in a 6-well plate and incubated overnight before the spent media was replaced with drugged media. Drug treatment lasted for indicated durations. Protein was extracted using radioimmunoprecipitation (RIPA) assay buffer (Cat #R0278, Sigma-Aldrich, St. Louis, MO) containing cOmplete™ Mini, EDTA-free Protease Inhibitor Cocktail (Cat #4693159001, Roche, Basel, Switzerland). Denaturing sample buffer was added, samples were boiled at 95 degrees for 10 minutes. An equal amount of protein lysate was electrophoresed through NuPAGE™ 4 to 12%, Bis-Tris, 1.5 mm, Mini Protein Gels (Invitrogen, Waltham, MA, USA) then transferred to PVDF membranes. The PVDF membrane was blocked with 5% non-fat milk (Sigma-Aldrich, St. Louis, MO, USA) in 1× TTBS. Primary antibodies were incubated with the transferred PVDF membrane in blocking buffer at 4° C. overnight. Secondary antibodies used included goat anti-rabbit IgG (H+L) secondary antibody, HRP (Cat #31460, Invitrogen, Waltham, MA, USA) and goat anti-mouse IgG (H+L) secondary antibody, HRP (Cat #31430, Invitrogen, Waltham, MA, USA). Signal was detected using a Syngene Imaging System.
9-ING-41 treatment decreases survival factor expression while increasing PD-L1 levels in colorectal cancer cell lines. To elucidate the mechanism behind the differential effects of 9-ING-41 on either colorectal cancer or immune cells in co-culture and cytokine profiling assays, the inventors performed Western blot analyses on tumor and immune cells treated with 9-ING-41 over a 72-hour time course.
Treating cells from colorectal cancer cell lines with 1 μM 9-ING-41 decreases Surivin, NF-κB p65, and IκBα while increasing PD-L1 levels in, 9-ING-41 treatment of immune cells increases NIK. Western blot analysis of HCT-116 and HT-29 colorectal cancer cells for expression of indicated proteins after increasing durations of 9-ING-41 treatment (0-72 hours). Western blot analysis of TALL-104 T cells for expression of indicated proteins after increasing durations of 9-ING-41 treatment (0-72 hours). […]
Background: A western blot detects proteins with antibodies after separation by electrophoresis.

Series [7] deals with colorectal cancer cells. As to the kind of experiment: Co-culture with pre-treatment of effector or target cell population. To be noted: target cells pre-treated before co-culture. Format: cell-based, Human. Here is the method:
Co-culture experiments were conducted with GFP+ SW480 colorectal cancer cells and either NK-92 natural killer cells or TALL-104 T cells at various effector/target ratios in a 48-well plate, in the presence or absence of 9-ING-41. Follow-up experiments compared the effect of pre-treating either the effector or the target cell population with 9-ING-41 before the co-culture experiment was started.

Regarding `Cn1cc(C2=C(c3coc4ccc(F)cc34)C(=O)NC2=O)c2cc3c(cc21)OCO3` [9-ING-41], in series [1], the “IFN-γ and TRAIL” value is “increases”; the “concentration of secreted granzyme B” value is “decreases”. Also, the clinical response entry in series [2] (a patient with BRAF V600E metastatic melanoma, previously treated) is listed as “complete response”. The “increased infection or opportunistic/unusual infections” value in series [2] (even in patients with extensive prior cytotoxic therapy) is listed as “no evidence of increased infection”. Moreover, the “attributable Grade 3 or 4 serious adverse events” value in series [2] (monotherapy and combination with standard chemotherapy, NCT03678883) is given as “without attributable Grade 3 or 4 serious adverse events”. Moreover, the myelosuppression entry in series [2] (patients) is reported as “not associated with myelosuppression of any degree”. Moreover, in series [2] (preliminary results from ongoing clinical trials), the safety profile result is “excellent safety profile devoid of myelosuppressive and immunosuppressive effects”. For the same compound, the “shed PD-L1” value in series [3] (colorectal cancer cell lines, regression slope analysis, 48 hours) is “decreases”. Also, the overall cytokine levels entry in series [3] (increasing doses (IC10-IC70), 48 hours) was “decreasing trend”. Moreover, the VEGF result in series [3] (increasing doses, 48 hours, supernatant) is “most prominently decreased”. Further, in series [3] (increasing doses, supernatant), the “expression of chemokine CXCL14 (BRAK)” value is reported as “increase”. For the same compound, in series [3] (supernatant), the “macrophage colony-stimulating factor (M-CSF)” value was “decrease”. Besides, the blood brain barrier result in series [4] is on record as “crosses the blood brain barrier”. The “expression of PD-L1” value in series [5] is recorded as “regulated the expression of PD-L1”. In series [6] (0-72 hours), the PD-1 expression result is on record as “decreased”; the “Survivin and NIK” value is on record as “surprising increases”. Besides, the “NF-KB, IKK β, IKBα, pIKBα, and Bcl-2” value in series [6] (as treatment duration increased) is given as “no significant changes”. Moreover, the “cell-killing after pre-treatment of the target tumor cells” value in series [7] is reported as “bolstered cell-killing”.
